Assay results as given in patent publication US12195482B1 (Arcus Biosciences, Inc., priority 2022, dated 2025).

Key:
[1] = target: T1, p-AXL (Homo sapiens, UniProt P30530); test: Axl phosphorylation inhibition ELISA in HEK293T cells transfected with NanoLuc-tagged AXL; assay type: cell-based; settings: 1 h compound incubation, media (OptiMEM)
T1 construct: expressed in transfected cells; host or cells: HEK293T
T1 sequence (P30530 26-894): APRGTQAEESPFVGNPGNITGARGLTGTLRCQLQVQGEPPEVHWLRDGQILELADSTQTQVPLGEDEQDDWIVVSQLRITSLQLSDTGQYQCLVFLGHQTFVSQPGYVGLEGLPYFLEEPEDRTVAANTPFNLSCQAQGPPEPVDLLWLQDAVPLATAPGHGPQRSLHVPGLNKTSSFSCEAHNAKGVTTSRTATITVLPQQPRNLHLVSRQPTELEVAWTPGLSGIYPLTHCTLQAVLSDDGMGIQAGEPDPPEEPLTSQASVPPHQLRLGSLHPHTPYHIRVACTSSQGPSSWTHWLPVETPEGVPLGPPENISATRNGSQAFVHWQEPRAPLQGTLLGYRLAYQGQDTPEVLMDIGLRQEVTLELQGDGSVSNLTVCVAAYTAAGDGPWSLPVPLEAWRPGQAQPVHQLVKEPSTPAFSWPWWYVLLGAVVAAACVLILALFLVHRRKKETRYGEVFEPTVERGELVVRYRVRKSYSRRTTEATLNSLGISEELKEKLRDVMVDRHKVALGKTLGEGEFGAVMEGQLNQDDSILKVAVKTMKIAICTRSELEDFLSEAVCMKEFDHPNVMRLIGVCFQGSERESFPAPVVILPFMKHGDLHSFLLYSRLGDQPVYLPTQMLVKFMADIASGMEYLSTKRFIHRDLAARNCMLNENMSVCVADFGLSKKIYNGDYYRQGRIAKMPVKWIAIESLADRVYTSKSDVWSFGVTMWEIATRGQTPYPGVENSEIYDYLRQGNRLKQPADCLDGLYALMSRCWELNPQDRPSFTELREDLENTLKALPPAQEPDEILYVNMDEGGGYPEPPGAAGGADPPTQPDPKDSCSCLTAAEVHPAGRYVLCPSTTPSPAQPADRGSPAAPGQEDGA
In short: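 Phospho-AXL detected by luminescence of NanoLuc tag after capture of cell lysate on biotinylated anti-phospho-tyrosine mAb plates (2 h). Lysates came from transiently transfected HEK293T cells treated 1 h at 37° C with serial 2-fold dilutions (22 points). IC50 by standard 4-parameter logistic fitting.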

[2] = target: T2, Axl (Homo sapiens, UniProt P30530); test: Biochemical potency, HTRF KinEASE-TK kinase assay; parameters: purchased Invitrogen; settings: 5 nM AXL, 700 μM ATP
T2 sequence (P30530 26-894): T1 sequence (P30530 26-894)
In short: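 Phosphorylation of a biotinylated tyrosine-kinase peptide (800 nM) by AXL (5 nM) or TYRO3/MER (1 nM) is measured at 700 µM ATP after 2 h at room temperature, following 1 h enzyme–compound preincubation. Signal is the time-resolved FRET ratio, converted to percent activity.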

| SMILES | IC50 [1] [nM] | IC50 [2] [nM] |
| --- | --- | --- |
| Cc1cccnc1-c1ccc(-c2c[nH]c3ncc(-c4ccc5c(c4)CC[C@@H](N[C@H]4CCCOC4)CC5)cc23)cc1 [Example 186, (3S)—N-[(7S)-2-{3-[4-(3-Methylpyridin-2-yl)phenyl]-1H-pyrrolo[2,3-b]pyridin-5-yl}-6,7,8,9-tetrahydro-5H-benzo[7]annulen-7-yl]oxan-3-amine] | 100 to 1000 | < 100 |
| Cc1nn(C)nc1-c1ccc(-c2n[nH]c3ncc(-c4ccc5c(c4)CC[C@@H](N4C6COCC4C6)CC5)cc23)cc1 [Example 14, 6-[(7S)-2-{3-[4-(2,5-Dimethyl-2H-1,2,3-triazol-4-yl)phenyl]-1H-pyrazolo[3,4-b]pyridin-5-yl}-6,7,8,9-tetrahydro-5H-benzo[7]annulen-7-yl]-3-oxa-6-azabicyclo[3.1.1]heptane] | < 100 | < 100 |
| c1cnc(-c2ccc(-c3n[nH]c4ncc(-c5ccc6c(c5)CC[C@@H](N5C7COCC5C7)CC6)cc34)cc2)c(O[C@@H]2CCOC2)c1 [Example 104, 6-[(7S)-2-[3-(4-{3-[(3R)—Oxolan-3-yloxy]pyridin-2-yl}phenyl)-1H-pyrazolo[3,4-b]pyridin-5-yl]-6,7,8,9-tetrahydro-5H-benzo[7]annulen-7-yl]-3-oxa-6-azabicyclo[3.1.1]heptane] | < 100 | < 100 |
| CCOc1cccnc1-c1ccc(-c2n[nH]c3ncc(-c4ccc5c(c4)CC[C@@H](N4C6COCC4C6)CC5)cc23)cc1 [Example 181, 6-[(7S)-2-{3-[4-(3-Ethoxypyridin-2-yl)phenyl]-1H-pyrazolo[3,4-b]pyridin-5-yl}-6,7,8,9-tetrahydro-5H-benzo[7]annulen-7-yl]-3-oxa-6-azabicyclo[3.1.1]heptane] | 100 to 1000 | < 100 |
| Cn1ncnc1-c1ccc(-c2n[nH]c3ncc(-c4ccc5c(c4)CC[C@@H](N4C6COCC4C6)CC5)cc23)cc1 [Example 110, 6-[(7S)-2-{3-[4-(1-Methyl-1H-1,2,4-triazol-5-yl)phenyl]-2H-pyrazolo[3,4-b]pyridin-5-yl}-6,7,8,9-tetrahydro-5H-benzo[7]annulen-7-yl]-3-oxa-6-azabicyclo[3.1.1]heptane] | < 100 | < 100 |
| Cc1ccnc(-c2ccc(-c3n[nH]c4ncc(-c5ccc6c(c5)CC[C@@H](N5C7COCC5C7)CC6)cc34)cc2)c1 [Example 117, 6-[(7S)-2-{3-[4-(4-Methylpyridin-2-yl)phenyl]-1H-pyrazolo[3,4-b]pyridin-5-yl}-6,7,8,9-tetrahydro-5H-benzo[7]annulen-7-yl]-3-oxa-6-azabicyclo[3.1.1]heptane] | 100 to 1000 | < 100 |
| O=C1OCCN1c1cccnc1-c1ccc(-c2n[nH]c3ncc(-c4ccc5c(c4)CC[C@@H](N4C6COCC4C6)CC5)cc23)cc1 [Example 121, 3-[2-(4-{5-[(7S)-7-{3-Oxa-6-azabicyclo[3.1.1]heptan-6-yl}-6,7,8,9-tetrahydro-5H-benzo[7]annulen-2-yl]-1H-pyrazolo[3,4-b]pyridin-3-yl}phenyl)pyridin-3-yl]-1,3-oxazolidin-2-one] | < 100 | < 100 |
| c1cncc(-c2ccc(-c3c[nH]c4ncc(-c5ccc6c(c5)CC[C@@H](N5C7COCC5C7)CC6)cc34)cc2)c1 [Example 158, 6-[(7S)-2-{3-[4-(Pyridin-3-yl)phenyl]-1H-pyrrolo[2,3-b]pyridin-5-yl}-6,7,8,9-tetrahydro-5H-benzo[7]annulen-7-yl]-3-oxa-6-azabicyclo[3.1.1]heptane] | 100 to 1000 | < 100 |
| CN(C)C(=O)c1cccnc1-c1ccc(-c2n[nH]c3ncc(-c4ccc5c(c4)CC[C@@H](N4C6COCC4C6)CC5)cc23)cc1 [Example 167, N,N-Dimethyl-2-(4-{5-[(7S)-7-{3-oxa-6-azabicyclo[3.1.1]heptan-6-yl}-6,7,8,9-tetrahydro-5H-benzo[7]annulen-2-yl]-1H-pyrazolo[3,4-b]pyridin-3-yl}phenyl)pyridine-3-carboxamide] | < 100 | < 100 |
| CN(C(=O)C1CC1)c1cccnc1-c1ccc(-c2n[nH]c3ncc(-c4ccc5c(c4)CC[C@@H](N4C6COCC4C6)CC5)cc23)cc1 [Example 128, N-Methyl-N-[2-(4-{5-[(7S)-7-{3-oxa-6-azabicyclo[3.1.1]heptan-6-yl}-6,7,8,9-tetrahydro-5H-benzo[7]annulen-2-yl]-1H-pyrazolo[3,4-b]pyridin-3-yl}phenyl)pyridin-3-yl]cyclopropanecarboxamide] | < 100 | < 100 |
| Cc1cccnc1-c1ccc(-c2n[nH]c3ncc(-c4ccc5c(c4)CC[C@@H](N4C[C@@H]6C[C@H]4CO6)CC5)cc23)cc1 [Example 130, (1S,4S)-5-[(7S)-2-{3-[4-(3-Methylpyridin-2-yl)phenyl]-1H-pyrazolo[3,4-b]pyridin-5-yl}-6,7,8,9-tetrahydro-5H-benzo[7]annulen-7-yl]-2-oxa-5-azabicyclo[2.2.1]heptane] | < 100 | < 100 |
| Cc1cc(-c2ncccc2C)ccc1-c1n[nH]c2ncc(-c3ccc4c(c3)CC[C@@H](N3C5COCC3C5)CC4)cc12 [Example 30, 6-[(7S)-3-[3-[2-Methyl-4-(3-methylpyridin-2-yl)phenyl]-1H-pyrazolo[3,4-b]pyridin-5-yl]-6,7,8,9-tetrahydro-5H-benzo[7]annulen-7-yl]-3-oxa-6-azabicyclo[3.1.1]heptane] | 100 to 1000 | > 1000 |
| CC(C)(O)c1cccnc1-c1ccc(-c2n[nH]c3ncc(-c4ccc5c(c4)CC[C@@H](N4C6COCC4C6)CC5)cc23)cc1 [Example 10, 2-[2-(4-{5-[(7S)-7-{3-Oxa-6-azabicyclo[3.1.1]heptan-6-yl}-6,7,8,9-tetrahydro-5H-benzo[7]annulen-2-yl]-1H-pyrazolo[3,4-b]pyridin-3-yl}phenyl)pyridin-3-yl]propan-2-ol] | < 100 | < 100 |
| CC(C)(O)c1ccccc1-c1ccc(-c2c[nH]c3ncc(-c4ccc5c(c4)CC[C@@H](N4C6COCC4C6)CC5)cc23)cn1 [Example 114, 2-[2-(5-{5-[(7S)-7-{3-Oxa-6-azabicyclo[3.1.1]heptan-6-yl}-6,7,8,9-tetrahydro-5H-benzo[7]annulen-2-yl]-1H-pyrrolo[2,3-b]pyridin-3-yl}pyridin-2-yl)phenyl]propan-2-ol] | < 100 | < 100 |
| Cc1cccc(-c2ccc(-c3n[nH]c4ncc(-c5ccc6c(c5)CC[C@@H](N5C7COCC5C7)CC6)cc34)cc2)n1 [Example 116, 6-[(7S)-2-{3-[4-(6-Methylpyridin-2-yl)phenyl]-1H-pyrazolo[3,4-b]pyridin-5-yl}-6,7,8,9-tetrahydro-5H-benzo[7]annulen-7-yl]-3-oxa-6-azabicyclo[3.1.1]heptane] | 100 to 1000 | < 100 |
| Cc1ccc(-c2ccc(-c3n[nH]c4ncc(-c5ccc6c(c5)CC[C@@H](N5C7COCC5C7)CC6)cc34)cc2)nc1 [Example 115, 6-[(7S)-2-{3-[4-(5-Methylpyridin-2-yl)phenyl]-1H-pyrazolo[3,4-b]pyridin-5-yl}-6,7,8,9-tetrahydro-5H-benzo[7]annulen-7-yl]-3-oxa-6-azabicyclo[3.1.1]heptane] | 100 to 1000 | < 100 |
| Cc1cccnc1-c1ccc(-c2n[nH]c3ncc(-c4ccc5c(c4)CC[C@@H](N[C@H]4CCCOC4)CC5)cc23)cc1 [Example 129, (3S)—N-[(7S)-2-{3-[4-(3-Methylpyridin-2-yl)phenyl]-1H-pyrazolo[3,4-b]pyridin-5-yl}-6,7,8,9-tetrahydro-5H-benzo[7]annulen-7-yl]oxan-3-amine] | < 100 | < 100 |
| C[C@@H]1CCCN1[C@@]1(C)CCc2ccc(-c3cnc4[nH]nc(-c5ccc(-c6ncnn6C)cc5)c4c3)cc2CC1 [Example 112, 1-Methyl-5-(4-{5-[(7S)-7-methyl-7-[(2R)-2-methylpyrrolidin-1-yl]-6,7,8,9-tetrahydro-5H-benzo[7]annulen-2-yl]-1H-pyrazolo[3,4-b]pyridin-3-yl}phenyl)-1H-1,2,4-triazole] | < 100 | < 100 |
| CC(C)(O)c1cccnc1-c1ccc(-c2c[nH]c3ncc(-c4ccc5c(c4)CC[C@@H](N4C6COCC4C6)CC5)cc23)cc1 [Example 95, 2-[2-(4-{5-[(7S)-7-{3-Oxa-6-azabicyclo[3.1.1]heptan-6-yl}-6,7,8,9-tetrahydro-5H-benzo[7]annulen-2-yl]-1H-pyrrolo[2,3-b]pyridin-3-yl}phenyl)pyridin-3-yl]propan-2-ol] | < 100 | < 100 |
